Values of other authors as cited in patent US20250332126A1, “TOPICAL COMPOSITION FOR PAIN RELIEF” (JOHNSON & JOHNSON CONSUMER INC., priority 2022, published 2025).

Conditions: at 20° C.

Row | vapor pressure | SMILES
1 | 5.95 kPa | CCO [ethanol]
2 | 4.40 kPa | CC(C)O [isopropanol]
3 | 11.9 kPa | CO [methanol]
